Structures can show the parent of a compound that is named as a salt.
Experiments:
Assay type in all cases: cell-based
Cav2.2 [1] = biological target: T1, Cav2.2 (Rattus norvegicus, UniProt Q02294); assay: whole-cell patch clamp, Ba2+ current, external and internal application
T1 construct: gene Cacna1b; rat Cav2.2 stably expressed with β3 and α2δ−1 subunits in tsA201 cell line; with β3 subunit and α2δ−1 subunit

Nav1.7 [2] = biological target: T2, Nav1.7 (Homo sapiens, UniProt Q15858); assay: whole-cell patch clamp, external application; KI estimated from shift in channel availability
T2 construct: gene SCN9A; human Nav1.7 stably expressed in HEK cell line
T2 sequence (Q15858 whole entry): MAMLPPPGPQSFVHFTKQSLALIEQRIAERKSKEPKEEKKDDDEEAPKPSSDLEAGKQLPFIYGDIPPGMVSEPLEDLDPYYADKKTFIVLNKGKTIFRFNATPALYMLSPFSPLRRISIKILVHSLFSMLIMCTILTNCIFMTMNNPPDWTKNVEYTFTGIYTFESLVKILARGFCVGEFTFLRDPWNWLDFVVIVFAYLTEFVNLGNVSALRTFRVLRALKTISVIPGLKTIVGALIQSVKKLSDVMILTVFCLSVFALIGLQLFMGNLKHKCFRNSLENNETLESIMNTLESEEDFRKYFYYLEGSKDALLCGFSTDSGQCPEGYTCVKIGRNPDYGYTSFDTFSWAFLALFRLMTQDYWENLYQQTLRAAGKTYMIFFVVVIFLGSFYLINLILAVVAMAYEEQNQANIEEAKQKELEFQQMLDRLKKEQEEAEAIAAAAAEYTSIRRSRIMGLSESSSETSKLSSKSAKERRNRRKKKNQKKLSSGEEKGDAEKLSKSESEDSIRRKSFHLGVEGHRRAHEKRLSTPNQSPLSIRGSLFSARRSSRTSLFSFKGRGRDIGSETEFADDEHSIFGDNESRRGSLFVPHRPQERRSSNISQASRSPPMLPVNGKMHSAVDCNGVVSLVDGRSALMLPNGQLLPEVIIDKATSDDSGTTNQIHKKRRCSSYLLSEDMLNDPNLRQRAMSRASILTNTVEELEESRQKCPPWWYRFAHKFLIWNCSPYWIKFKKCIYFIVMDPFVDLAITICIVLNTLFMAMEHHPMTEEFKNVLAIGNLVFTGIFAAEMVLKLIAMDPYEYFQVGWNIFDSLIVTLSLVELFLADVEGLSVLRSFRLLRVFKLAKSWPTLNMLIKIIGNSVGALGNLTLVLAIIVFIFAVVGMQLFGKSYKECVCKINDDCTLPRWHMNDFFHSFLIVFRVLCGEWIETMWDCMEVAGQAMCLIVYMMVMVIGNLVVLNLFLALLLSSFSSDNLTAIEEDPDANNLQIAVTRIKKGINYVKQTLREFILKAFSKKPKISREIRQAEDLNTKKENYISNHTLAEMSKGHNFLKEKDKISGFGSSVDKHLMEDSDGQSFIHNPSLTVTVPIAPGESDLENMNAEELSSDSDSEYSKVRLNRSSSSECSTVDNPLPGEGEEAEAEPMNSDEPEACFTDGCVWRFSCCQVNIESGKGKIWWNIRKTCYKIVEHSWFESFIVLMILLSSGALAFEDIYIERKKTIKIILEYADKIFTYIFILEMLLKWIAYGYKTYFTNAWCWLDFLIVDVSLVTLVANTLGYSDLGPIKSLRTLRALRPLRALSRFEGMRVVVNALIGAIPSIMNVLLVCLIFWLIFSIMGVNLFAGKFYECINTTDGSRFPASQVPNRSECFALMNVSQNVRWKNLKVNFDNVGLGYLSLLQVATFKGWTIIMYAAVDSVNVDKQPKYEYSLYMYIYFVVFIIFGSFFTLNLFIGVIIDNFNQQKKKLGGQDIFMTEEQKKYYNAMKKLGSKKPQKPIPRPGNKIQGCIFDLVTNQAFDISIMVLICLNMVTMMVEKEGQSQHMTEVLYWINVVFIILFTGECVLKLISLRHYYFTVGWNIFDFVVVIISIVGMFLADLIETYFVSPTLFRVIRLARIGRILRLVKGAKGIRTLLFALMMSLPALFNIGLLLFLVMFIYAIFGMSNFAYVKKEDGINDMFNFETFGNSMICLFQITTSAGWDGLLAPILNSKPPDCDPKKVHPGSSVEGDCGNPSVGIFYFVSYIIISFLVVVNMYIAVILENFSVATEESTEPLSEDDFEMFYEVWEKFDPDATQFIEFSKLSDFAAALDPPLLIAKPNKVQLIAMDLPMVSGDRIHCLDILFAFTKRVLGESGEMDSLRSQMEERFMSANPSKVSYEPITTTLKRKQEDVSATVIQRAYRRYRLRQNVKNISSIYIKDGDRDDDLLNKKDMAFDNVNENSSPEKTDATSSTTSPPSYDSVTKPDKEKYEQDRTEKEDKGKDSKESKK

Cav2.2 [3] = biological target: T1, Cav2.2; assay: whole-cell patch clamp, Ba2+ current
Nav1.7 [4] = biological target: T2, Nav1.7; assay: whole-cell patch clamp, use-dependent inhibition at […] Hz

With `COc1ccc(CNC(=O)C(CSCC2CCCC2)[N+](C)(C)CCC(C)(C)C)cc1` (centres unmarked) [CNCB-2, [2-Cyclopentylmethylsulfanyl-1-(4-methoxy-benzylcarbamoyl)-ethyl]−(3,3-dimethyl-butyl)-dimethyl-ammonium, chloride salt] the “whole-cell patch clamp, Ba2+ current, external and internal application” value (Cav2.2 [1]) was “current reduced to 5 ± 2% of control by 100” and the Kd (Nav1.7 [2]) was 710 nM.
`COc1ccc(CNC(=O)C(CSCC2CCCC2)NCCC(C)(C)C)cc1` (centres unmarked) [NNCB-2, 3-Cyclopentylmethylsulfanyl-2-(3,3-dimethyl-butylamino)-N-(4-methoxy-benzyl)-propionamide] was tested, and the inhibition at 10 µM (Cav2.2 [3]) was roughly 60%.
For `CCCCN1CCCCC1C(=O)Nc1c(C)cccc1C` (centres unmarked) [bupivacaine], the “whole-cell patch clamp, use-dependent inhibition at 10 Hz” value (Nav1.7 [4]) was “current reduced to 22 ± 4% (no drug 77 ± 3%) by 10”.
`CCN(CC)CC(=O)Nc1c(C)cccc1C` [lidocaine] was tested, and the “whole-cell patch clamp, use-dependent inhibition at 10 Hz” value (Nav1.7 [4]) was “current reduced to 57 ± 7% of control (no drug 77 ± 3%) by 30”.

From paper PMC6877086, “Novel charged sodium and calcium channel inhibitor active against neurogenic inflammation” (eLife, 2019)
